From patent publication US11680086B2, “Lipopeptide for potently inhibiting HIV, derivative thereof, pharmaceutical composition thereof and use thereof” (Institute of Pathogen Biology, Chinese Academy of Medical …, priority 2017, dated 2023)
Peptide text beside a SMILES is read from it. * marks the point of attachment. X1 = Cc1c(C)c2c(c(C)c1OC(=O)CCC(=O)*)CCC(C)(CCCC(C)CCCC(C)CCCC(C)C)O2; Stearoyl = CCCCCCCCCCCCCCCCCC(=O)*; Palmitoyl = CCCCCCCCCCCCCCCC(=O)*

Legend:
[1] = system: HIV-2 strain ROD (infectious); assay: inhibition of HIV-2; assay type: cell-based; conditions: HIV-2 ROD
HIV-1 = conditions: cell fusion, entry and replication; compared with parent or control peptide
Text: HIV-1 pseudovirus-mediated cell entry inhibition assay: basic steps included: (1) Preparation of HIV-1 pseudovirus: the 293T cells were co-transfected with a plasmid expressing the envelope protein (Env) of HIV-1 strain NL4-3 (i.e., a recombinant expression plasmid obtained by inserting the gene encoding the envelope protein (ENV) of the D36G mutant of the HIV-1 strain NL4-3 in the Table 2 of the Reference 14 listed in the Background Art into the vector pcDNA3.1(−)) and the HIV-1 backbone plasmid pSG3Δenv (provided by the AIDS Reagent Program of National Institutes of Health (NIH), catalog number: 11051) by using a cell transfection reagent, incubated in a cell incubator of 37° C. and 5% CO2 for 6 hours, and then the medium was changed, and the cells were further incubated for 48 hours. The cell culture supernatant containing pseudovirus particles was pipetted and filtered with a 0.45 μm filter to collect the supernatant, then 20% fetal bovine serum (FBS) was added thereto, the final solution was transferred to a polypropylene tube, and stored at −80° C. for ready for use or directly subjected to virus titration. (2) Titration of HIV-1 pseudovirus: the viruses were diluted by 5 folds in a 96-well plate, and 4 replicate wells with 8 gradients were set to a final volume of 100 microliters. The TZM-b1 cells were trypsinized and counted, and the cells were diluted to 1×10^5 cells/ml with DMEM complete medium; 100 μl of cells dilution (containing 15 μg/ml DEAE-dextran) per well were added and cultured at 37° C. and 5% CO2 for 48 hours. The 96-well plate was then taken from the cell culture incubator. The supernatant was discarded from the wells. To each well, 30 μl of a cell lysate was added, and after 10 minutes, 100 μl of a luciferase detection reagent was added. 100 μl of liquid was pipetted from each well and added to a corresponding 96-well white plate, and the luminescence values were read by a microplate photometer. The virus titer was calculated by the Reed-Muench method. […]

[2] = system: HIV-1 strain NL4-3 (NL4-3D36G); assay: antiviral activity in serum of macaque after subcutaneous injection; assay type: in vivo, macaques (rhesus monkeys); conditions: 3 mg/kg subcutaneous
Method: The specific method was as follows: 6 experimental macaques (rhesus monkeys) were selected, half male and half female, aged 3-4 years old, weighing 3.4-4.7 kg. […] The serum was separated according to a conventional method. The injection interval of each inhibitor was more than 2 weeks to ensure that there was no residue of the previous analyte. The serum activity against the HIV-1 strain NL4-3 (NL4-3D36G) was measured according to the experimental method of the pseudovirus-based assay in the above examples. The serum was diluted by 3 folds. […] Therefore, the lipopeptides of the present invention were not only potent but also were long-lasting effective.

Compound | inhibitory activity against HIV-2 (in words) [1] | antiviral activity (in words) (HIV-1) | maximum serum dilution multiple for inhibiting 50% of NL4-3 infectivity ([2]; 4 hour after injection) [folds] | maximum serum dilution multiple for inhibiting 50% of NL4-3 infectivity ([2]; 6 hour after injection) [folds] | maximum serum dilution multiple for inhibiting 50% of NL4-3 infectivity ([2]; 72 hours (3 days) after injection) [folds]
CCCCCCCCCCCCCCCCCC(=O)NCCCC[C@H](NC(=O)[C@H](CCC(=O)O)NC(=O)[C@H](CC(C)C)NC(=O)[C@H](CCCCN)NC(=O)[C@H](CCCCN)NC(=O)[C@H](CC(C)C)NC(=O)[C@H](CCC(=O)O)NC(=O)[C@H](CCC(=O)O)NC(=O)[C@H](CCC(=O)O)NC(=O)[C@H](CC(N)=O)NC(=O)[C@H](CCCCN)NC(=O)[C@H](CCCCN)NC(=O)[C@H](CCC(N)=O)NC(=O)[C@H](CCC(N)=O)NC(=O)[C@H](CCC(=O)O)NC(=O)[C@H](CCC(=O)O)NC(=O)[C@H](C)NC(=O)[C@H](CCCCN)NC(=O)[C@H](CCCCN)NC(=O)[C@H](CC(C)C)NC(=O)[C@H](CC(C)C)NC(=O)[C@H](CCC(=O)O)NC(=O)[C@H](CCC(=O)O)NC(=O)[C@@H](NC(C)=O)[C@@H](C)CC)C(N)=O [LP-90] (Ac-IEELLKKAEEQQKKNEEELKKLEK(Stearoyl)-NH2) | extremely potent inhibitory activity | potent antiviral activity |  |  | 
CCCCCCCCCCCCCCCC(=O)NCCCC[C@H](NC(=O)[C@H](CCC(=O)O)NC(=O)[C@H](CC(C)C)NC(=O)[C@H](CCCCN)NC(=O)[C@H](CCCCN)NC(=O)[C@H](CC(C)C)NC(=O)[C@H](CCC(=O)O)NC(=O)[C@H](CCC(=O)O)NC(=O)[C@H](CCC(=O)O)NC(=O)[C@H](CC(N)=O)NC(=O)[C@H](CCCCN)NC(=O)[C@H](CCCCN)NC(=O)[C@H](CCC(N)=O)NC(=O)[C@H](CCC(N)=O)NC(=O)[C@H](CCC(=O)O)NC(=O)[C@H](CCC(=O)O)NC(=O)[C@H](C)NC(=O)[C@H](CCCCN)NC(=O)[C@H](CCCCN)NC(=O)[C@H](CC(C)C)NC(=O)[C@H](CC(C)C)NC(=O)[C@H](CCC(=O)O)NC(=O)[C@H](CCC(=O)O)NC(=O)[C@@H](NC(=O)[C@H](CC(N)=O)NC(=O)[C@H](C)NC(=O)[C@H](CCC(=O)O)NC(=O)[C@H](CC(C)C)NC(C)=O)[C@@H](C)CC)C(N)=O [LP-51] (Ac-LEANIEELLKKAEEQQKKNEEELKKLEK(Palmitoyl)-NH2) | extremely potent inhibitory activity | comparable to that of the LP-50 | 700482 | 584381 | 1122
CC[C@H](C)[C@H](NC(=O)[C@H](CCCCN)NC(=O)[C@H](CCC(N)=O)NC(=O)[C@H](CCC(=O)O)NC(=O)[C@H](Cc1c[nH]c2ccccc12)NC(C)=O)C(=O)N[C@@H](CCC(=O)O)C(=O)N[C@@H](CCC(=O)O)C(=O)N[C@@H](CC(C)C)C(=O)N[C@@H](CC(C)C)C(=O)N[C@@H](CCCCN)C(=O)N[C@@H](CCCCN)C(=O)N[C@@H](C)C(=O)N[C@@H](CCC(=O)O)C(=O)N[C@@H](CCC(=O)O)C(=O)N[C@@H](CCC(N)=O)C(=O)N[C@@H](CCC(N)=O)C(=O)N[C@@H](CCCCN)C(=O)N[C@@H](CCCCN)C(=O)N[C@@H](CC(N)=O)C(=O)N[C@@H](CCC(=O)O)C(=O)N[C@@H](CCC(=O)O)C(=O)N[C@@H](CCC(=O)O)C(=O)N[C@@H](CC(C)C)C(=O)N[C@@H](CCCCN)C(=O)N[C@@H](CCCCN)C(=O)N[C@@H](CC(C)C)C(=O)N[C@@H](CCC(=O)O)C(=O)N[C@@H](CCCCNC(=O)CCC(=O)Oc1c(C)c(C)c2c(c1C)CCC(C)(CCCC(C)CCCC(C)CCCC(C)C)O2)C(N)=O (stereo partly drawn) [LP-85] (Ac-WEQKIEELLKKAEEQQKKNEEELKKLEK(X1)-NH2) | extremely potent inhibitory activity | strong antiviral effects |  |  | 
